# Measured values reported in PubChem BioAssay (NCI).
#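 Grown in 96-well plates, cells were treated for 48 hours with each compound at five concentrations. Insufficient inhibition: endpoint recorded as highest concentration tested. The concentration for full growth arrest is given as TGI.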
# How the values were obtained:
# Assay in all cases: DTP human tumour cell line panel, 48 h
# [1] = test system: 786-0 renal
# [2] = test system: A498 renal
# [3] = test system: A549 NSCLC
# [4] = test system: ACHN renal
# [5] = test system: BT-549 breast
# [6] = test system: CAKI-1 renal
# [7] = test system: CCRF-CEM leukemia
# [8] = test system: COLO 205 colon
# [9] = test system: DU-145 prostate
# [10] = test system: EKVX NSCLC
# [11] = test system: HCC-2998 colon
# [12] = test system: HCT-116 colon
# [13] = test system: HCT-15 colon
# [14] = test system: HL-60(TB) leukemia
# [15] = test system: HOP-62 NSCLC
# [16] = test system: HS 578T breast
# [17] = test system: HT29 colon
# [18] = test system: IGROV1 ovarian
# [19] = test system: K-562 leukemia
# [20] = test system: KM12 colon
# [21] = test system: LOX IMVI melanoma
# [22] = test system: M14 melanoma
# [23] = test system: MALME-3M melanoma
# [24] = test system: MCF7 breast
# [25] = test system: MDA-MB-231 breast
# [26] = test system: MDA-MB-435
# [27] = test system: MDA-N
# [28] = test system: MOLT-4 leukemia
# [29] = test system: NCI-H226 lung
# [30] = test system: NCI-H23 lung
# [31] = test system: NCI-H460 lung
# [32] = test system: NCI-H522 lung
# [33] = test system: NCI/ADR-RES ovarian
# [34] = test system: OVCAR-3 ovarian
# [35] = test system: OVCAR-4 ovarian
# [36] = test system: OVCAR-5 ovarian
# [37] = test system: OVCAR-8 ovarian
# [38] = test system: PC-3 prostate
# [39] = test system: RPMI-8226 leukemia
# [40] = test system: RXF 393 renal
# [41] = test system: SF-268 CNS
# [42] = test system: SF-295 CNS
# [43] = test system: SF-539 CNS
# [44] = test system: SK-MEL-2 melanoma
# [45] = test system: SK-MEL-28 melanoma
# [46] = test system: SK-MEL-5 melanoma
# [47] = test system: SK-OV-3 ovarian
# [48] = test system: SN12C renal
# [49] = test system: SNB-19 CNS
# [50] = test system: SNB-75 CNS
# [51] = test system: SR leukemia
# [52] = test system: SW-620 colon
# [53] = test system: T-47D breast
# [54] = test system: TK-10 renal
# [55] = test system: U251 CNS
# [56] = test system: UACC-257 melanoma
# [57] = test system: UACC-62 melanoma
# [58] = test system: UO-31 renal
# [59] = test system: HOP-92 NSCLC
structure (smiles),measurement,setting,value
COC(=O)C1CC2C=CC1N(C(=O)OCc1ccccc1)C2 (centres undefined),TGI,[1],> 100 µM
same,TGI,[2],> 100 µM
same,TGI,[3],> 100 µM
same,TGI,[4],> 100 µM
same,TGI,[5],> 100 µM
same,TGI,[6],> 100 µM
same,TGI,[7],> 100 µM
same,TGI,[8],> 100 µM
same,TGI,[9],> 100 µM
same,TGI,[10],> 100 µM
same,TGI,[11],> 100 µM
same,TGI,[12],> 100 µM
same,TGI,[13],> 100 µM
same,TGI,[14],> 100 µM
same,TGI,[15],> 100 µM
same,TGI,[16],> 100 µM
same,TGI,[17],> 100 µM
same,TGI,[18],> 100 µM
same,TGI,[19],> 100 µM
same,TGI,[20],> 100 µM
same,TGI,[21],> 100 µM
same,TGI,[22],> 100 µM
same,TGI,[23],> 100 µM
same,TGI,[24],> 100 µM
same,TGI,[25],> 100 µM
same,TGI,[26],> 100 µM
same,TGI,[27],> 100 µM
same,TGI,[28],> 100 µM
same,TGI,[29],> 100 µM
same,TGI,[30],> 100 µM
same,TGI,[31],> 100 µM
same,TGI,[32],43.5 µM
same,TGI,[33],> 100 µM
same,TGI,[34],> 100 µM
same,TGI,[35],> 100 µM
same,TGI,[36],> 100 µM
same,TGI,[37],> 100 µM
same,TGI,[38],> 100 µM
same,TGI,[39],> 100 µM
same,TGI,[40],> 100 µM
same,TGI,[41],> 100 µM
same,TGI,[42],> 100 µM
same,TGI,[43],> 100 µM
same,TGI,[44],> 100 µM
same,TGI,[45],> 100 µM
same,TGI,[46],> 100 µM
same,TGI,[47],> 100 µM
same,TGI,[48],> 100 µM
same,TGI,[49],> 100 µM
same,TGI,[50],> 100 µM
same,TGI,[51],> 100 µM
same,TGI,[52],> 100 µM
same,TGI,[53],> 100 µM
same,TGI,[54],> 100 µM
same,TGI,[55],> 100 µM
same,TGI,[56],> 100 µM
same,TGI,[57],> 100 µM
same,TGI,[58],> 100 µM
CC1CCC2(NC1)OC1CC3C4CCC5CC(OC6OC(CO)C(OC7OC(CO)C(O)C(OC8OCC(O)C(O)C8O)C7OC7OC(CO)C(O)C(O)C7O)C(O)C6O)CCC5(C)C4CCC3(C)C1C2C (centres undefined),TGI,[2],3.75 µM
same,TGI,[3],4.99 µM
same,TGI,[4],4.82 µM
same,TGI,[5],5.97 µM
same,TGI,[6],2.11 µM
same,TGI,[7],> 22 µM
same,TGI,[8],4 µM
same,TGI,[9],3.46 µM
same,TGI,[10],2.37 µM
same,TGI,[11],2.78 µM
same,TGI,[12],6.98 µM
same,TGI,[14],4.93 µM
same,TGI,[15],3.68 µM
same,TGI,[16],3.85 µM
same,TGI,[17],3.26 µM
same,TGI,[18],1.86 µM
same,TGI,[19],> 21.2 µM
same,TGI,[20],4.64 µM
same,TGI,[21],> 100 µM
same,TGI,[22],3.02 µM
same,TGI,[23],2.83 µM
same,TGI,[24],6.3 µM
same,TGI,[25],3.4 µM
same,TGI,[26],3.03 µM
same,TGI,[27],1.02 µM
same,TGI,[29],3.72 µM
same,TGI,[31],4.16 µM
same,TGI,[32],3.12 µM
same,TGI,[33],3.93 µM
same,TGI,[34],3.12 µM
same,TGI,[35],3.1 µM
same,TGI,[36],2.73 µM
same,TGI,[38],1.05 µM
same,TGI,[39],4.01 µM
same,TGI,[41],3.32 µM
same,TGI,[42],2.32 µM
same,TGI,[44],3.75 µM
same,TGI,[45],3.46 µM
same,TGI,[46],3.56 µM
same,TGI,[48],3.32 µM
same,TGI,[49],3.38 µM
same,TGI,[50],3.56 µM
same,TGI,[51],> 100 µM
same,TGI,[52],3.94 µM
same,TGI,[53],5.07 µM
same,TGI,[54],3.4 µM
same,TGI,[55],3.07 µM
same,TGI,[56],4.65 µM
same,TGI,[57],2.65 µM
same,TGI,[58],2.69 µM
N=C(N)SCCc1ccncc1,TGI,[1],> 100 µM
same,TGI,[2],> 100 µM
same,TGI,[3],> 100 µM
same,TGI,[4],> 100 µM
same,TGI,[5],> 100 µM
same,TGI,[6],> 100 µM
same,TGI,[7],> 100 µM
same,TGI,[8],> 100 µM
same,TGI,[9],> 100 µM
same,TGI,[10],> 100 µM
same,TGI,[12],> 100 µM
same,TGI,[13],> 100 µM
same,TGI,[14],> 100 µM
same,TGI,[15],> 100 µM
same,TGI,[59],> 100 µM
same,TGI,[16],> 100 µM
same,TGI,[17],> 100 µM
same,TGI,[18],> 100 µM
same,TGI,[19],> 100 µM
same,TGI,[20],> 100 µM
same,TGI,[21],> 100 µM
same,TGI,[22],> 100 µM
same,TGI,[24],> 100 µM
same,TGI,[25],> 100 µM
same,TGI,[26],> 100 µM
same,TGI,[27],> 100 µM
same,TGI,[28],> 100 µM
same,TGI,[29],> 100 µM
same,TGI,[30],> 100 µM
same,TGI,[31],> 100 µM
same,TGI,[33],> 100 µM
same,TGI,[34],> 100 µM
same,TGI,[35],> 100 µM
same,TGI,[36],> 100 µM
same,TGI,[37],> 100 µM
same,TGI,[38],> 100 µM
same,TGI,[39],> 100 µM
same,TGI,[40],> 100 µM
same,TGI,[41],> 100 µM
same,TGI,[42],> 100 µM
same,TGI,[43],> 100 µM
same,TGI,[44],> 100 µM
same,TGI,[45],> 100 µM
same,TGI,[46],> 100 µM
same,TGI,[47],> 100 µM
same,TGI,[48],> 100 µM
same,TGI,[49],> 100 µM
same,TGI,[50],> 100 µM
same,TGI,[51],> 100 µM
same,TGI,[52],> 100 µM
same,TGI,[53],> 100 µM
same,TGI,[54],> 100 µM
same,TGI,[55],> 100 µM
same,TGI,[56],> 100 µM
same,TGI,[57],> 100 µM
same,TGI,[58],> 100 µM
